In data set [1] the test system is cellules de mélanome murin B16. Briefly: Preliminary cytotoxicity test, WST-8 reduction assay. The format is cell-based. Particulars: for % de cellules viables: 72 h incubation, WST-8, individual replicates. As to the method: Avant cet essai, un essai de cytotoxicité a été réalisé à l'aide d'un essai standard de réduction WST-8, afin de déterminer les concentrations à tester dans cette étude.
(§1) • Modèle biologique : • Type cellulaire : Lignée cellulaire de mélanome murin B16 (= mélanocytes B16) • Conditions de culture : 37°C, 5% CO2 • Milieu de culture : DMEM sans rouge de phénol optimisé pour l'essai, complété par du sérum de veau fœtal à 10%. • Composé testé : acide sterculique 50, 100 et 200 µM (dans 0.066% ethanol) • Essai préliminaire de cytotoxicité • Type de cellule : Cellules de mélanome murin B16 en milieu de culture • Durée d'incubation : 72 heures • Paramètres d'évaluation : Essai de réduction WST-8 et observations morphologiques à l'aide d'un microscope. Après traitement, les cellules sont incubées avec du WST-8 (sel de tétrazolium très soluble dans l'eau) réduit en un produit soluble dans l'eau de couleur orange (formazan) par la succinate déshydrogé-nase (enzyme mitochondriale). Cette transformation est proportionnelle au nombre de cellules vivantes et à leur activité métabolique. La densité optique (DO) des extraits à 450 nm a été enregistrée avec un spectromètre (VERSAmax, Molecular Devices). • Culture et traitement
L'erreur standard de la moyenne (sem) est une mesure de la distance probable entre la moyenne de l'échantillon et la moyenne réelle de la population. Elle est calculée en divisant l'écart-type par la racine carrée de la taille de l'échantillon. Pourcentage deviabilité: viabilité(%) = (ODéchantillon/ODcontrôle) × 100 [formula] [formula]
For orientation: Tetrazolium dyes change colour on reduction, which living cells bring about.

Data set [2] deals with cellules de mélanome murin B16 stimulées par le NDP-MSH. Briefly: Melanin synthesis in B16 melanoma cells stimulated by NDP-MSH (total melanin content, absorbance at 405 nm). The settings on record: for Teneur en mélanine: NDP-MSH 0,1 µM, 72 h, percent of stimulated control, individual replicates. The format is cell-based.
Excerpt: Dans la présente étude, l'effet blanchissant potentiel de l'acide sterculique a été évalué sur la synthèse de mélanine dans les cellules de mélanome murin B16 stimulées par un analogue stable de l'α-MSH, le NDP-MSH ([Nle4, D-Phe7]-α-Melanocyte Stimulating Hormone).
Le modèle de mélanocyte B16 constitue un modèle approprié pour la recherche d'effets inhibiteurs sur la production de mélanine car il est très réactif (par exemple à une stimulation NDP-MSH), ce qui entraîne une forte modulation de la production de mélanine entre les conditions basales et les conditions stimulées. Cette forte production de mélanine dans des conditions stimulées permet d'identifier les composés présentant des propriétés blanchissantes.
as §1
Des cellules de mélanome B16 ont été ensemencées dans une plaque à 96 puits et incubées dans un milieu de culture pendant 24 heures.
Le milieu a ensuite été remplacé par du milieu de culture, en présence de NDP-MSH à 0,1 µM, contenant ou non : - le solvant témoin (éthanol testé à 0,066 %), • le composé d'essai acide sterculique testé à 50, 100 ou 200 µM, • l'acide kojique de référence testé à 0,5 mM ou 3 mM, • la combinaison du composé testé acide sterculique (50, 100 ou 200 µM) et de l'acide kojique à 0,5 mM.
Les cellules ont été incubées pendant 72 heures. En parallèle, une condition de contrôle non stimulée a été réalisée.
À la fin du temps d'incubation, l'absorbance à 405 nm a été mesurée et la teneur totale en mélanine (extracellulaire et intracellulaire) a été calculée pour chaque échantillon à l'aide d'une courbe standard de mélanine allant de 0,78 à 100 µg/ml.
Les valeurs de fond (interférences potentielles), mesurées dans les puits sans cellules, ont été soustraites aux valeurs calculées afin de considérer l'effet lié à la production de mélanine uniquement.
Les résultats ont été exprimés en pourcentage de mélanine par rapport au contrôle stimulé.

Another data set concerns cellules B16. Briefly: Total protein quantity (DC Protein Assay) in B16 cells of the melanin test. Particulars: 200 µM; concluded from protein content. The class given is cell-based, murin. The method, then:
La quantité de protéines totales contenues dans les cellules et les surnageants de chaque réplicat a été mesurée à l'aide du kit DC Protein Assay contre une gamme de BSA avec un lecteur de microplaques à 750 nm (VERSAmax, Molecular Devices).
Kit : DC Protein Assay de BIO-RAD ref 500-0116.
Limite de détection basse : 0,2 mg/ml Limite de détection haute : 2 mg/ml Pour chaque condition de test, la quantité de mélanine a été normalisée par rapport à la quantité de protéines totales.

“And” between values parts separate entries of the source, which are not always exact repeats. Equal entries are not always repeated. A value given as a limit tells only on which side of the number the result lay.

Turning to `CCCCCCCCC1=C(CCCCCCCC(=O)O)C1` [acide sterculique, 8-(2-octyl-cyclopropen-1-yl)-octanoic acid], the “% de cellules viables” value is 112,1381% and 146,2746% and 110,4588% in data set [1] (AcSter 12 µM); 82,74032% and 102,0043% and 72,79147% in data set [1] (AcSter 37 µM); 112,2056% and 119,9363% and 106,0771% in data set [1] (AcSter 111 µM); 26,41552% and 44,06769% and 52,32917% in data set [1] (AcSter 333 µM); 1,061339% and 1,910951% and 2,113628% in data set [1] (AcSter 1000 µM); 133,9982% and 119,6442% and 122,5711% in data set [1] (AcSter 1,5 µM). The “effet sur la viabilité” value in data set [1] (up to 111 µM, B16 cells, WST-8 (Fig 1)) is “n'a pas eu d'effet sur la viabilité”. For the same compound, the “effet sur la synthèse de mélanine” value in data set [2] (50 µM, NDP-MSH-stimulated B16 cells) is listed as “n'a eu aucun effet”. Further, the inhibition relative in data set [2] (100 µM and 200 µM, strong, concentration-dependent inhibition of melanin synthesis) is not above 93%. The “inhibition de la teneur en mélanine” value is given as “inhibition marquée” in data set [2] (100 µM, B16 cells (Fig 2)) and “inhibition marquée” in data set [2] (200 µM, B16 cells (Fig 2)). In data set [2] (200 µM, B16 cells (Fig 2)), the “efficacy on melanin content compared with acide kojique à 3mM” value is on record as “aussi efficace que l'acide kojique à 3mM”. The “Teneur en mélanine” value in data set [2] (AS 50 µM, listed as AS) is 103,1496% and 125,1337% and 106,9156%; in data set [2] (AS 100 µM, listed as AS), 57,21785% and 56,01605% and 61,96404%; in data set [2] (AS 200 µM, listed as AS) it was 13,64829% and 13,90374% and 21,16183%. The viabilité des cellules result in the data set on cellules B16 is given as “n'inhibe pas la viabilité des cellules”.

As to `O=c1cc(CO)occ1O` [acide kojique, reference compound], the inhibition relative in data set [2] (0,5 mM, melanin synthesis in NDP-MSH-stimulated B16 cells) is 65%; in data set [2] (3 mM, inhibition of the NDP-MSH effect on melanin synthesis), 89%. Moreover, the “Teneur en mélanine” value in data set [2] (KA 0,5 mM, listed as KA) is 31,36483% and 49,33155% and 42,04703%; in data set [2] (KA 3 mM, listed as KA) it was 17,4540% and 20,7219% and 19,5020%.

(Values after patent EP4555995B1, “COSMETIC USE OF A CYCLOPROPENE FATTY ACID FOR INHIBITING SCD ACTIVITY” (Laboratoires d'Anjou, priority 2023, dated 2025).)
